In US9549558B2, “Herbicidal azines” (BASF SE, priority 2012, dated 2017):

What was measured:
Type in all cases: in vivo
[1] = system: STEME (Stellaria media); test: greenhouse post-emergence herbicidal test
Method in brief: (§1)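 Post-emergence greenhouse test on plants grown to 3–15 cm in loamy sand (~3.0% humus), sprayed with active ingredient suspended or emulsified in water. Plants held at 10-25 °C or 20-35 °C by species for 2 to 4 weeks, then damage scored visually 0–100 (100 = complete destruction of aerial parts, 0 = no damage).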

[2] = system: AMARE (Amaranthus retroflexus); test: greenhouse post-emergence herbicidal test
Method in brief: as §1

[3] = system: CHEAL (Chenopodium album); test: greenhouse post-emergence herbicidal test; conditions: 0.125 kg/ha
Method in brief: as §1

[4] = system: ECHCG (Echinocloa crus-galli); test: greenhouse post-emergence herbicidal test
Method in brief: as §1

[5] = system: CAPBP (Capsella bursa-pastoris); test: greenhouse pre-emergence herbicidal test
Method in brief: (§2)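 Seeds were sown in loamy sand with about 3.0% humus, and compounds suspended or emulsified in water were sprayed right after sowing. Pots were kept under transparent hoods until rooting at 10-25° C. or 20-35° C. depending on species, and damage was scored 0-100 after 2 to 4 weeks.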

[6] = system: LAMPU (Lamium purpureum); test: greenhouse pre-emergence herbicidal test
Method in brief: as §2

[7] = system: GERDI (Geranium dissectum); test: greenhouse post-emergence herbicidal test
Method in brief: as §1

[8] = system: ABUTH (Abutilon theophrasti); test: greenhouse post-emergence herbicidal test
Method in brief: as §1

[9] = system: SETVI (Setaria viridis); test: greenhouse pre-emergence herbicidal test
Method in brief: as §2

[10] = system: POLCO (Polygonum convolvulus); test: greenhouse pre-emergence herbicidal test
Method in brief: as §2

[11] = system: POLCO (Polygonum convolvulus); test: greenhouse post-emergence herbicidal test; conditions: 0.062 kg/ha
Method in brief: as §1

[12] = system: APESV (Apera spica-venti); test: greenhouse pre-emergence herbicidal test
Method in brief: as §2

[13] = system: STEME (Stellaria media); test: greenhouse pre-emergence herbicidal test
Method in brief: as §2

[14] = system: ECHCG (Echinocloa crus-galli); test: greenhouse pre-emergence herbicidal test
Method in brief: as §2

[15] = system: VIOAR (Viola arvensis); test: greenhouse pre-emergence herbicidal test; conditions: 500 g/ha
Method in brief: as §2

With `CC(C)(Cl)c1nc(N)nc(Nc2c(F)c(F)c(F)c(F)c2F)n1` [Example 1, 6-(1-chloro-1-methyl-ethyl)-N4-(2,3,4,5,6-pentafluorophenyl)-1,3,5-triazine-2,4-diamine] the herbicidal activity ([1]; 0.125 kg/ha) was “very good (a very good herbicidal activity is given at values of at least 85)” and the herbicidal activity ([2]; 0.125 kg/ha) was “very good (a very good herbicidal activity is given at values of at least 85)”.

In the case of `CC(C)(F)c1nc(N)nc(Nc2c(F)c(F)cc(F)c2F)n1` [Example 2, 6-(1-Fluoro-1-methyl-ethyl)-N4-(2,3,5,6-tetrafluorophenyl)-1,3,5-triazine-2,4-diamine], the herbicidal activity [3] is reported as “very good (a very good herbicidal activity is given at values of at least 85)” and the herbicidal activity ([4]; 0.125 kg/ha) is reported as “very good (a very good herbicidal activity is given at values of at least 85)”.

In the case of `CCc1nc(N)nc(Nc2c(F)c(F)c(F)c(F)c2F)n1` [Example 4], the herbicidal activity ([5]; 0.125 kg/ha, CAPBP) is reported as “very good (a very good herbicidal activity is given at values of at least 85)” and the herbicidal activity ([6]; 0.125 kg/ha) is reported as “very good (a very good herbicidal activity is given at values of at least 85)”.

In the case of `CC(C)c1nc(N)nc(Nc2c(F)c(F)c(F)c(F)c2F)n1` [Example 7], the herbicidal activity ([7]; 0.125 kg/ha) is reported as “very good (a very good herbicidal activity is given at values of at least 85)” and the herbicidal activity ([8]; 0.125 kg/ha) is reported as “very good (a very good herbicidal activity is given at values of at least 85)”.

With `CC(F)(F)c1nc(N)nc(Nc2c(F)c(F)c(F)c(F)c2F)n1` [Example 9] the herbicidal activity ([7]; 0.062 kg/ha) was “very good (a very good herbicidal activity is given at values of at least 85)” and the herbicidal activity ([8]; 0.062 kg/ha) was “very good (a very good herbicidal activity is given at values of at least 85)”.

In the case of `CC(F)c1nc(N)nc(Nc2cc(F)c(F)c(F)c2)n1` (stereo not drawn) [Example 16], the herbicidal activity ([1]; 0.125 kg/ha) is reported as “moderate (A moderate herbicidal activity is given at values of at least 60)” and the herbicidal activity ([8]; 0.125 kg/ha) is reported as “good (a good herbicidal activity is given at values of at least 70)”.

In the case of `CC(C)(F)c1nc(N)nc(Nc2c(F)cccc2F)n1` [Example 24], the herbicidal activity ([9]; 0.125 kg/ha) is reported as “very good (a very good herbicidal activity is given at values of at least 85)” and the herbicidal activity ([10]; 0.125 kg/ha) is reported as “very good (a very good herbicidal activity is given at values of at least 85)”.

With `CC(C)(F)c1nc(N)nc(Nc2c(F)ccc(F)c2F)n1` [Example 27] the herbicidal activity ([2]; 0.062 kg/ha) was “very good (a very good herbicidal activity is given at values of at least 85)” and the herbicidal activity ([4]; 0.062 kg/ha) was “very good (a very good herbicidal activity is given at values of at least 85)”.

With `CC(C)(F)c1nc(N)nc(Nc2c(F)ccc(Cl)c2F)n1` [Example 32] the herbicidal activity ([7]; 0.062 kg/ha) was “very good (a very good herbicidal activity is given at values of at least 85)” and the herbicidal activity [11] was “very good (a very good herbicidal activity is given at values of at least 85)”.

`CC(C)(F)c1nc(N)nc(Nc2c(F)cccc2Cl)n1` [Example 35] was tested, and the herbicidal activity ([1]; 0.062 kg/ha) was “very good (a very good herbicidal activity is given at values of at least 85)” and the herbicidal activity ([8]; 0.062 kg/ha) was “very good (a very good herbicidal activity is given at values of at least 85)”.

`CC(C)(F)c1nc(N)nc(Nc2ccc([N+](=O)[O-])cc2F)n1` [Example 39] was tested, and the herbicidal activity ([12]; 0.031 kg/ha) was “moderate (A moderate herbicidal activity is given at values of at least 60)”.

In the case of `CCC(C)(F)c1nc(N)nc(Nc2c(F)c(F)c(F)c(F)c2F)n1` (stereo not drawn) [Example 48], the herbicidal activity ([1]; 0.125 kg/ha) is reported as “very good (a very good herbicidal activity is given at values of at least 85)” and the herbicidal activity ([2]; 0.125 kg/ha) is reported as “very good (a very good herbicidal activity is given at values of at least 85)”.

In the case of `CCC(F)(CC)c1nc(N)nc(Nc2c(F)c(F)c(F)c(F)c2F)n1` [Example 49], the herbicidal activity [3] is reported as “very good (a very good herbicidal activity is given at values of at least 85)” and the herbicidal activity ([7]; 0.125 kg/ha) is reported as “very good (a very good herbicidal activity is given at values of at least 85)”.

`CC(C)(C)c1nc(N)nc(Nc2c(F)c(F)c(F)c(F)c2F)n1` [Example 52] was tested, and the herbicidal activity ([7]; 0.062 kg/ha) was “very good (a very good herbicidal activity is given at values of at least 85)” and the herbicidal activity ([8]; 0.062 kg/ha) was “very good (a very good herbicidal activity is given at values of at least 85)”.

For `Nc1nc(Nc2c(F)c(F)c(F)c(F)c2F)nc(C2CCC2)n1` [Example 57], the herbicidal activity ([2]; 0.062 kg/ha) was “very good (a very good herbicidal activity is given at values of at least 85)” and the herbicidal activity ([4]; 0.062 kg/ha) was “very good (a very good herbicidal activity is given at values of at least 85)”.

For `CC(c1nc(N)nc(Nc2c(F)c(F)c(F)c(F)c2F)n1)C1CC1` (stereo not drawn) [Example 63], the herbicidal activity ([13]; 125 g/ha) was “very good (a very good herbicidal activity is given at values of at least 85)”, the herbicidal activity ([9]; 125 g/ha) was “very good (a very good herbicidal activity is given at values of at least 85)” and the herbicidal activity ([14]; 125 g/ha) was “very good (a very good herbicidal activity is given at values of at least 85)”.

`CC(C)(Cl)c1nc(N)nc(Nc2c(F)cccc2F)n1` [Example 78] was tested, and the herbicidal activity ([12]; 125 g/ha) was “good (a good herbicidal activity is given at values of at least 70)”.

With `CC1(c2nc(N)nc(Nc3c(F)c(F)c(F)c(F)c3F)n2)CCCCC1` [Example 88] the herbicidal activity ([13]; 125 g/ha) was “very good (a very good herbicidal activity is given at values of at least 85)”, the herbicidal activity ([5]; 125 g/ha, CAPBP) was “very good (a very good herbicidal activity is given at values of at least 85)” and the herbicidal activity ([6]; 125 g/ha) was “very good (a very good herbicidal activity is given at values of at least 85)”.

For `CC(C)(F)c1nc(N)nc(Nc2c(F)cc(Cl)cc2F)n1` [Example 97], the herbicidal activity ([5]; 250 g/ha, CAPBP) was “good (a good herbicidal activity is given at values of at least 70)” and the herbicidal activity ([6]; 250 g/ha) was “good (a good herbicidal activity is given at values of at least 70)”.

For `CCC(C)(F)c1nc(N)nc(Nc2c(F)ccc(F)c2F)n1` (stereo not drawn) [Example 114], the herbicidal activity ([9]; 32 g/ha) was “very good (a very good herbicidal activity is given at values of at least 85)”, the herbicidal activity ([10]; 32 g/ha) was “very good (a very good herbicidal activity is given at values of at least 85)” and the herbicidal activity ([14]; 32 g/ha) was “very good (a very good herbicidal activity is given at values of at least 85)”.

With `Nc1nc(Nc2ccc(Br)cc2F)nc(C(F)F)n1` [Example 157] the herbicidal activity ([8]; 500 g/ha) was “very good (a very good herbicidal activity is given at values of at least 85)” and the herbicidal activity ([4]; 500 g/ha) was “very good (a very good herbicidal activity is given at values of at least 85)”.

`CC(C)(C)c1nc(N)nc(Nc2c(F)c(F)c(Br)c(F)c2F)n1` [Example 160] was tested, and the herbicidal activity ([13]; 125 g/ha) was “very good (a very good herbicidal activity is given at values of at least 85)”, the herbicidal activity ([5]; 125 g/ha, CAPBP) was “very good (a very good herbicidal activity is given at values of at least 85)” and the herbicidal activity ([6]; 125 g/ha) was “very good (a very good herbicidal activity is given at values of at least 85)”.

`CC(C)(F)c1nc(N)nc(Nc2ccc(C(=O)O)cc2F)n1` [Example 173] was tested, and the herbicidal activity ([4]; 500 g/ha) was “good (a good herbicidal activity is given at values of at least 70)”.

`Nc1nc(Nc2c(F)c(F)c(F)c(F)c2F)nc(C2(F)C(F)(F)C(F)(F)C(F)(F)C(F)(F)C2(F)F)n1` [Example 175] was tested, and the herbicidal activity ([12]; 494 g/ha) was “good (a good herbicidal activity is given at values of at least 70)”.

`CC(C)(F)c1nc(N)nc(Nc2c(F)c(F)cc(-c3ccccc3)c2F)n1` [Example 192] was tested, and the herbicidal activity ([2]; 1000 g/ha) was “very good (a very good herbicidal activity is given at values of at least 85)”, the herbicidal activity ([8]; 1000 g/ha) was “very good (a very good herbicidal activity is given at values of at least 85)” and the herbicidal activity ([4]; 1000 g/ha) was “very good (a very good herbicidal activity is given at values of at least 85)”.

With `CCC(C)(Cl)c1nc(N)nc(Nc2c(F)c(F)c(F)c(F)c2F)n1` (stereo not drawn) [Example 200] the herbicidal activity ([5]; 1000 g/ha, CACBP) was “very good (a very good herbicidal activity is given at values of at least 85)”, the herbicidal activity ([10]; 1000 g/ha) was “very good (a very good herbicidal activity is given at values of at least 85)” and the herbicidal activity ([14]; 1000 g/ha) was “very good (a very good herbicidal activity is given at values of at least 85)”.

`CCC(C)(F)c1nc(NC(C)=O)nc(Nc2c(F)c(F)cc(F)c2F)n1` (stereo not drawn) [Example 207] was tested, and the herbicidal activity ([13]; 125 g/ha) was “very good (a very good herbicidal activity is given at values of at least 85)”, the herbicidal activity ([5]; 125 g/ha, CAPBP) was “very good (a very good herbicidal activity is given at values of at least 85)” and the herbicidal activity ([9]; 125 g/ha) was “very good (a very good herbicidal activity is given at values of at least 85)”.

In the case of `COCN(c1nc(N)nc(C(C)(C)F)n1)c1c(F)c(F)c(F)c(F)c1F` [Example 305], the herbicidal activity [15] is reported as “very good (a very good herbicidal activity is given at values of at least 85)”, the herbicidal activity ([13]; 500 g/ha) is reported as “very good (a very good herbicidal activity is given at values of at least 85)” and the herbicidal activity ([10]; 500 g/ha) is reported as “very good (a very good herbicidal activity is given at values of at least 85)”.
